Measurements: PubChem BioAssay AID2060892 (Molecular Pharmacology Branch, DTP, NCI, 2025)

System: HOP-62 complex spheroids with HUVEC/MSC, viability
Experiment: Anticancer human tumor HOP-62 cell line growth inhibition [RAS];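 also: spheroids exposed to agents for seven days before readout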;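 as to viability, T/C: 100% = DMSO vehicle control viability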
Conditions: for IC50: curve of first compound; for viability, T/C: stronger effect = lower value; active = viability on the fitted dose curve at most 10% of control; inactive = the rest
Summary of the method: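 Tumour cells grown as complex spheroids with HUVEC endothelial cells and mesenchymal stem cells, treated with RAS pathway inhibitor combinations. Each agent spans half-log steps from near clinical Cmax, or 10 microM where Cmax is unknown.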

CC1(C)CCC(Nc2ncc(C(F)(F)F)c(-c3c[nH]c4c(P(C)(C)=O)c(C#N)ccc34)n2)CN1 (stereo unspecified) + CCn1c(-c2cc(N3CCN(C)CC3)cnc2C(C)OC)c2c3cc(ccc31)-c1csc(n1)CC(NC(=O)C1CC1C)C(=O)N1CCCC(N1)C(=O)OCC(C)(C)C2
274 nM: IC50 (second compound 0.003 µM)
> 300 nM: IC50 (second compound 0.000949 µM) | IC50 (second compound 0.00949 µM) | IC50 (second compound 0.03 µM) | IC50 (second compound 0.0949 µM)
inactive: viability, T/C (second compound 0.000949 µM, first compound 0.000949 µM) 106% | viability, T/C (second compound 0.000949 µM, first compound 0.003 µM) 95.9% | viability, T/C (second compound 0.000949 µM, first compound 0.00949 µM) 54.9% | viability, T/C (second compound 0.000949 µM, first compound 0.03 µM) 71.5% | viability, T/C (second compound 0.000949 µM, first compound 0.0949 µM) 76.7% | viability, T/C (second compound 0.000949 µM, first compound 0.3 µM) 38.8% | viability, T/C (second compound 0.003 µM, first compound 0.000949 µM) 83% | viability, T/C (second compound 0.003 µM, first compound 0.003 µM) 73% | viability, T/C (second compound 0.003 µM, first compound 0.00949 µM) 61.9% | viability, T/C (second compound 0.003 µM, first compound 0.03 µM) 74% | viability, T/C (second compound 0.003 µM, first compound 0.0949 µM) 79.7% | viability, T/C (second compound 0.003 µM, first compound 0.3 µM) 48% | viability, T/C (second compound 0.00949 µM, first compound 0.000949 µM) 68.3% | viability, T/C (second compound 0.00949 µM, first compound 0.003 µM) 52.8% | viability, T/C (second compound 0.00949 µM, first compound 0.00949 µM) 67.2% | viability, T/C (second compound 0.00949 µM, first compound 0.03 µM) 68.7% | viability, T/C (second compound 0.00949 µM, first compound 0.0949 µM) 67.8% | viability, T/C (second compound 0.00949 µM, first compound 0.3 µM) 54.1% | viability, T/C (second compound 0.03 µM, first compound 0.000949 µM) 50.9% | viability, T/C (second compound 0.03 µM, first compound 0.003 µM) 56.4% | viability, T/C (second compound 0.03 µM, first compound 0.00949 µM) 72.1% | viability, T/C (second compound 0.03 µM, first compound 0.03 µM) 74.3% | viability, T/C (second compound 0.03 µM, first compound 0.0949 µM) 51.6% | viability, T/C (second compound 0.03 µM, first compound 0.3 µM) 66% | viability, T/C (second compound 0.0949 µM, first compound 0.000949 µM) 49.5% | viability, T/C (second compound 0.0949 µM, first compound 0.003 µM) 59% | viability, T/C (second compound 0.0949 µM, first compound 0.00949 µM) 64.4% | viability, T/C (second compound 0.0949 µM, first compound 0.03 µM) 66.1% | viability, T/C (second compound 0.0949 µM, first compound 0.0949 µM) 51.4% | viability, T/C (second compound 0.0949 µM, first compound 0.3 µM) 70.2% | viability, T/C (second compound 0.3 µM, first compound 0.000949 µM) 43.8% | viability, T/C (second compound 0.3 µM, first compound 0.003 µM) 59.2% | viability, T/C (second compound 0.3 µM, first compound 0.00949 µM) 70.8% | viability, T/C (second compound 0.3 µM, first compound 0.03 µM) 56.9% | viability, T/C (second compound 0.3 µM, first compound 0.0949 µM) 66.1% | viability, T/C (second compound 0.3 µM, first compound 0.3 µM) 70.7%
< 0.949 nM: IC50 (second compound 0.3 µM)

O=C(c1ccc(F)c(F)c1Nc1ccc(I)cc1F)N1CC(O)([C@@H]2CCCCN2)C1 + C=CC(=O)N1CCN(c2nc(OCC3CCCN3C)nc3c(F)c(-c4nc(N)cc(C)c4C(F)(F)F)c(Cl)cc23)C(C)C1
active: viability, T/C (second compound 1 µM, first compound 1 µM) 9.01%
inactive: viability, T/C (second compound 0.00316 µM, first compound 0.00316 µM) 77.1% | viability, T/C (second compound 0.00316 µM, first compound 0.01 µM) 77.8% | viability, T/C (second compound 0.00316 µM, first compound 0.0316 µM) 55.2% | viability, T/C (second compound 0.00316 µM, first compound 0.1 µM) 36.5% | viability, T/C (second compound 0.00316 µM, first compound 0.316 µM) 20% | viability, T/C (second compound 0.00316 µM, first compound 1 µM) 19.2% | viability, T/C (second compound 0.01 µM, first compound 0.00316 µM) 68.2% | viability, T/C (second compound 0.01 µM, first compound 0.01 µM) 65.5% | viability, T/C (second compound 0.01 µM, first compound 0.0316 µM) 52.2% | viability, T/C (second compound 0.01 µM, first compound 0.1 µM) 35.1% | viability, T/C (second compound 0.01 µM, first compound 0.316 µM) 18.8% | viability, T/C (second compound 0.01 µM, first compound 1 µM) 15% | viability, T/C (second compound 0.0316 µM, first compound 0.00316 µM) 68.1% | viability, T/C (second compound 0.0316 µM, first compound 0.01 µM) 60.1% | viability, T/C (second compound 0.0316 µM, first compound 0.0316 µM) 42.2% | viability, T/C (second compound 0.0316 µM, first compound 0.1 µM) 30.6% | viability, T/C (second compound 0.0316 µM, first compound 0.316 µM) 15.1% | viability, T/C (second compound 0.0316 µM, first compound 1 µM) 13.3% | viability, T/C (second compound 0.1 µM, first compound 0.00316 µM) 64.8% | viability, T/C (second compound 0.1 µM, first compound 0.01 µM) 54.5% | viability, T/C (second compound 0.1 µM, first compound 0.0316 µM) 49.3% | viability, T/C (second compound 0.1 µM, first compound 0.1 µM) 27.8% | viability, T/C (second compound 0.1 µM, first compound 0.316 µM) 15.7% | viability, T/C (second compound 0.1 µM, first compound 1 µM) 10.7% | viability, T/C (second compound 0.316 µM, first compound 0.00316 µM) 57% | viability, T/C (second compound 0.316 µM, first compound 0.01 µM) 57.2% | viability, T/C (second compound 0.316 µM, first compound 0.0316 µM) 38.7% | viability, T/C (second compound 0.316 µM, first compound 0.1 µM) 28% | viability, T/C (second compound 0.316 µM, first compound 0.316 µM) 16.6% | viability, T/C (second compound 0.316 µM, first compound 1 µM) 10.5% | viability, T/C (second compound 1 µM, first compound 0.00316 µM) 63.6% | viability, T/C (second compound 1 µM, first compound 0.01 µM) 59.4% | viability, T/C (second compound 1 µM, first compound 0.0316 µM) 40.6% | viability, T/C (second compound 1 µM, first compound 0.1 µM) 24.3% | viability, T/C (second compound 1 µM, first compound 0.316 µM) 13.1%
14 nM: IC50 (second compound 0.316 µM)
38.3 nM: IC50 (second compound 0.01 µM)
46.5 nM: IC50 (second compound 0.00316 µM)
17.6 nM: IC50 (second compound 1 µM)
20 nM: IC50 (second compound 0.0316 µM)
22.7 nM: IC50 (second compound 0.1 µM)

C[C@@H](NC(=O)c1ncnc(N)c1Cl)c1ncc(C(=O)Nc2cc(C(F)(F)F)c(Cl)cn2)s1 + CCn1c(-c2cccnc2C(C)OC)c2c3cc(ccc31)N1CCOC(CC(NC(=O)C(C(C)C)N(C)C(=O)C3(F)CCN(C(=O)C#CC(C)(C)N(C)C)CC3)C(=O)N3CCCC(N3)C(=O)OCC(C)(C)C2)C1
> 10000 nM: IC50 (second compound 0.000949 µM) | IC50 (second compound 0.003 µM) | IC50 (second compound 0.00949 µM) | IC50 (second compound 0.03 µM) | IC50 (second compound 0.0949 µM) | IC50 (second compound 0.3 µM)
inactive: viability, T/C (second compound 0.000949 µM, first compound 0.0316 µM) 113% | viability, T/C (second compound 0.000949 µM, first compound 0.1 µM) 93% | viability, T/C (second compound 0.000949 µM, first compound 0.316 µM) 86.2% | viability, T/C (second compound 0.000949 µM, first compound 1 µM) 109% | viability, T/C (second compound 0.000949 µM, first compound 3.16 µM) 108% | viability, T/C (second compound 0.000949 µM, first compound 10 µM) 65.3% | viability, T/C (second compound 0.003 µM, first compound 0.0316 µM) 115% | viability, T/C (second compound 0.003 µM, first compound 0.1 µM) 103% | viability, T/C (second compound 0.003 µM, first compound 0.316 µM) 87.9% | viability, T/C (second compound 0.003 µM, first compound 1 µM) 108% | viability, T/C (second compound 0.003 µM, first compound 3.16 µM) 87% | viability, T/C (second compound 0.003 µM, first compound 10 µM) 67.7% | viability, T/C (second compound 0.00949 µM, first compound 0.0316 µM) 95% | viability, T/C (second compound 0.00949 µM, first compound 0.1 µM) 94.8% | viability, T/C (second compound 0.00949 µM, first compound 0.316 µM) 85.3% | viability, T/C (second compound 0.00949 µM, first compound 1 µM) 96.2% | viability, T/C (second compound 0.00949 µM, first compound 3.16 µM) 77.7% | viability, T/C (second compound 0.00949 µM, first compound 10 µM) 70.6% | viability, T/C (second compound 0.03 µM, first compound 0.0316 µM) 96.8% | viability, T/C (second compound 0.03 µM, first compound 0.1 µM) 89.6% | viability, T/C (second compound 0.03 µM, first compound 0.316 µM) 95.8% | viability, T/C (second compound 0.03 µM, first compound 1 µM) 82.4% | viability, T/C (second compound 0.03 µM, first compound 3.16 µM) 64.5% | viability, T/C (second compound 0.03 µM, first compound 10 µM) 76% | viability, T/C (second compound 0.0949 µM, first compound 0.0316 µM) 94.7% | viability, T/C (second compound 0.0949 µM, first compound 0.1 µM) 90.8% | viability, T/C (second compound 0.0949 µM, first compound 0.316 µM) 81.7% | viability, T/C (second compound 0.0949 µM, first compound 1 µM) 80.3% | viability, T/C (second compound 0.0949 µM, first compound 3.16 µM) 68.1% | viability, T/C (second compound 0.0949 µM, first compound 10 µM) 75.7% | viability, T/C (second compound 0.3 µM, first compound 0.0316 µM) 86.3% | viability, T/C (second compound 0.3 µM, first compound 0.1 µM) 83.9% | viability, T/C (second compound 0.3 µM, first compound 0.316 µM) 77.5% | viability, T/C (second compound 0.3 µM, first compound 1 µM) 74.4% | viability, T/C (second compound 0.3 µM, first compound 3.16 µM) 68.9% | viability, T/C (second compound 0.3 µM, first compound 10 µM) 71.2%
